Assay results as given in patent US6033867A, “Fructosyl amino acid oxidase, process for producing the same, and method of assaying amadori compounds using the enzyme” (Kyoto Daiichi Kagaku Co., Ltd., priority 1995, dated 2000).

Key:
[1] = system: FAOD-A; test: Effect of various inhibitors on FAOD-A activity; type: biochemical, A. terreus IFO6365; conditions: for inhibition of FAOD-A activity, in words: PCMB 0.1 mM, others 1 mM
Protocol: (§1) To an enzyme solution was added a solution containing a metal ion to be tested at a final concentration of 1 mM in 0.1 M Tris-HCl buffer (pH 8.0). After 5-minute-incubation at 30° C., the enzyme activity was assayed.
(§2) The inhibitory effect of various substances was tested in a manner substantially analogous to that described in (1) above. In the present test, the final concentration of parachloro mercuric benzoate (PCMB) is 0.1 mM while that of others 1 mM.

[2] = target: T1, FAOD-L (Aspergillus terreus, UniProt Q92204); test: Effect of various inhibitors on FAOD-L activity; type: biochemical, A. terreus GP1; conditions: for inhibition of FAOD-L activity, in words: PCMB 0.1 mM, others 1 mM
T1 construct: 94 kDa by gel filtration, 48 kDa subunit, so homodimer
Protocol: as §1, §2

[3] = target: T1, FAOD-L; test: Effect of metal ion on the activity of FAOD-L; type: biochemical, A. terreus GP1; conditions: for effect of metal ion on FAOD-L, in words: 1 mM; for relative activity (%): material 1 mM, 0.1 M Tris-HCl pH 8.0, 5 min at 30° C., None = 100
Protocol: as §1

[4] = system: FAOD-A; test: Effect of metal ion on the activity of FAOD-A; type: biochemical, A. terreus IFO6365; conditions: for effect of metal ion on FAOD-A, in words: 1 mM
Protocol: as §1

[5] = system: FAOD-A originated from A. terreus IFO6365; test: Substrate specificity of FAOD-A; type: biochemical
Protocol: (§3) A 100 mM FZL solution was prepared by dissolving previously-obtained FZL in distilled water. To 100 μl of 45 mM 4-aminoantipyrine, 100 μl of 60 U/ml peroxidase, 100 μl of 60 mM phenol, 1 ml of 0.1 M Tris-HCl buffer (pH 8.0) and 50 μl of enzyme solution was added distilled water to total volume of 3.0 ml. The mixture was incubated at 30° C. for 2 minutes, 50 μl of 100 mM FZL solution was added thereto, and the time course of absorbance at 505 nm was measured. The amount (μmole) of hydrogen peroxide generated per minute was calculated on the basis of molar absorptivity (5.16×10^3 M^-1 cm^-1) of quinone pigment produced, and the resultant numerical value was taken as a unit(U) of enzyme activity.

[6] = target: T2, FAOD-L originated from A. terreus GP1 (Aspergillus terreus, UniProt Q92204); test: Substrate specificity of FAOD-L; type: biochemical
T2 construct: 94 kDa by gel filtration, 48 kDa subunit, so homodimer
T2 sequence (Q92204 1-437): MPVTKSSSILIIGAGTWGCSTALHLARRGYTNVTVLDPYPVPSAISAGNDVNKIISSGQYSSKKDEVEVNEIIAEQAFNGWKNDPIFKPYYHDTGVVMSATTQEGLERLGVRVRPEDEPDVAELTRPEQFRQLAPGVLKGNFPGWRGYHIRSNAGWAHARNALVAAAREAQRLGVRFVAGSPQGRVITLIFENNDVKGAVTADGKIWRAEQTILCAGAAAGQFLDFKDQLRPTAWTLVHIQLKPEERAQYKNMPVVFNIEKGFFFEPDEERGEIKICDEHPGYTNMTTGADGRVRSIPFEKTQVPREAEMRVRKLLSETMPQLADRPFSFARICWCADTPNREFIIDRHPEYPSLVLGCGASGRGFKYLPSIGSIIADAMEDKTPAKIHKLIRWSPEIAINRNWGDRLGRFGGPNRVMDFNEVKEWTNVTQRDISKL
Protocol: as §3

[7] = material 1 mM, 0.1 M Tris-HCl pH 8.0, 5 min at 30° C., None = 100
[8] = substrate concentration 1.67 mM

NN [hydrazine]
inhibition of FAOD-A activity, in words [1]: inhibit the FAOD-A activity completely
inhibition of FAOD-L activity, in words [2]: inhibit the FAOD-L activity strongly

[Cu+2] [copper]
effect of metal ion on FAOD-L, in words [3]: inhibitory

[Zn+2] [zinc]
effect of metal ion on FAOD-A, in words [4]: inhibited
effect of metal ion on FAOD-L, in words [3]: inhibitory

mercury
effect of metal ion on FAOD-A, in words [4]: inhibited
effect of metal ion on FAOD-L, in words [3]: inhibited completely

O=C(O)c1cc[c]([Hg][Cl])cc1 [p-CMB, parachloro mercuric benzoate]
inhibition of FAOD-A activity, in words [1]: inhibit the FAOD-A activity completely
inhibition of FAOD-L activity, in words [2]: inhibit the FAOD-L activity strongly

[Ca+2].[Cl-].[Cl-] [CaCl2]
relative activity (%) [4, 7]: 104%
relative activity (%) [3]: 96%

Fructosyl valine
Specific activity (%) [5, 8]: 20.5%
Specific activity (%) [6, 8]: 32.1%

O=C(O)CI [Acetic iodide]
relative activity (%) [1]: 66%

[Cl-].[Cl-].[Mg+2] [MgCl2]
relative activity (%) [4, 7]: 108%
relative activity (%) [3]: 101%

[Ag+] [silver]
effect of metal ion on FAOD-L, in words [3]: inhibited completely

[Cl-].[Li+] [LiCl]
relative activity (%) [4, 7]: 103%

O=S(=O)([O-])[O-].[Fe+2] [FeSO4]
relative activity (%) [3]: 95%

NO [hydroxylamine]
relative activity (%) ([1]; material 1 mM, None = 100): 10%
relative activity (%) ([2]; material 1 mM, None = 100): 2%

c1cnc2c(c1)ccc1cccnc12 [o-Phenanthroline]
relative activity (%) ([1]; material 1 mM, None = 100): 62%

N^ε -Fructosylpoly-L-lysine
Specific activity (%) ([5]; substrate concentration 0.02%): 2.0%
Specific activity (%) ([6]; substrate concentration 0.02%): 0.30%

[Cl-].[Cs+] [CsCl]
relative activity (%) [4, 7]: 108%

NNC(N)=O [semicarbazide]
relative activity (%) ([1]; material 1 mM, None = 100): 64%

NNc1ccccc1 [phenylhydrazine]
inhibition of FAOD-A activity, in words [1]: inhibit the FAOD-A activity completely

[Cl-].[Rb+] [RbCl]
relative activity (%) [4, 7]: 107%

[Cl-].[Na+] [NaCl]
relative activity (%) ([4]; pH 8): 104%

O=C(O)c1cc(SSc2ccc([N+](=O)[O-])c(C(=O)O)c2)ccc1[N+](=O)[O-] [DTNB, 5,5Dithiobis(2-nitrobenzoic acid)]
inhibition of FAOD-A activity, in words [1]: inhibit the FAOD-A activity completely
inhibition of FAOD-L activity, in words [2]: inhibit the FAOD-L activity strongly

O=C(N[C@@H](CCCCNCC(=O)[C@@H](O)[C@H](O)[C@H](O)CO)C(=O)O)OCc1ccccc1 [N^ε -fructosyl N^α -Z-lysine]
Specific activity (%) [5, 8]: 100%
Specific activity (%) [6, 8]: 100%

c1ccc(-c2ccccn2)nc1 [α,α-Dipyridyl]
relative activity (%) ([1]; material 1 mM, None = 100): 67%

[Co] [cobalt]
effect of metal ion on FAOD-A, in words [4]: inhibitory

[Cl][Mn][Cl] [MnCl2]
effect of metal ion on FAOD-A, in words [4]: inhibitory
relative activity (%) [4, 7]: 59%
relative activity (%) [3]: 101%
